According to patent US11407738B2 (Achillion Pharmaceuticals, Inc., priority 2015, dated 2022):

Molecular target: Human Factor D (Homo sapiens (Human), UniProt P00746)
Test: Human Factor D assay
Type: biochemical
Conditions: Factor D inhibition, substrate Z-L-Lys-SBzl
Procedure: Human Factor D (purified from human serum, Complement Technology, Inc.) at 80 nM final concentration is incubated with test compound at various concentrations for 5 min at room temperature in 50 mM Tris, 1M NaCl, pH 7.5. A synthetic substrate Z-L-Lys-SBzl and DTNB (Ellman's reagent) are added to final concentrations of 100 μM each. […] IC50 values are calculated by nonlinear regression of complement Factor D reaction rates as a function of test compound concentration.

Chain of Human Factor D (P00746 26-253): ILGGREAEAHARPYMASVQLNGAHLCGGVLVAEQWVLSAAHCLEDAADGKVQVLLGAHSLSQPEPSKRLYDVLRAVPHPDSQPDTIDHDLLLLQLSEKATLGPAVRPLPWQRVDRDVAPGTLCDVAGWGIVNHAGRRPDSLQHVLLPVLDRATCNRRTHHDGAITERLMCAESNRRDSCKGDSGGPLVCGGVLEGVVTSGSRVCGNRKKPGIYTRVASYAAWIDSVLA

Structure (SMILES) | IC50 (Table 4) [µM] | IC50 (Table 3) [µM]
CCOP(=O)(OCC)OC[C@@]12C[C@@H]1N(C(=O)Cn1nc(C(C)=O)c3cc(-c4cnc(C)nc4)ccc31)[C@H](C(=O)Nc1cccc(Br)n1)C2 [Compound 581, ((1S,3S,5R)-2-(2-(3-Acetyl-5-(2-methylpyrimidin-5-yl)-1H-indazol-1-yl)acetyl)-3-(6-bromopyridin-2-ylcarbamoyl)-2-azabicyclo[3.1.0]hexan-5-yl)methyl Diethyl Phosphate] | 1 to 10 | 
CC(=O)c1nn(CC(=O)N2C[C@H](F)C[C@H]2C(=O)Nc2cccc(Br)n2)c2ccc(N3CCn4c(nnc4C(F)(F)F)C3)cc12 [Compound 618, (2S,4R)-1-(2-(3-acetyl-5-(3-(trifluoromethyl)-5,6-dihydro-[1,2,4]triazolo[4,3-a]pyrazin-7(8H)-yl)-1H-indazol-1-yl)acetyl)-N-(6-bromopyridin-2-yl)-4-fluoropyrrolidine-2-carboxamide] | < 1 | 
CC(=O)c1nn(CC(=O)N2C[C@H](F)C[C@H]2C(=O)Nc2cccc(-c3ccccc3Cl)c2F)c2ccc(N3CCn4c(nnc4C(F)(F)F)C3)cc12 [Compound 619, (2S,4R)-1-(2-(3-acetyl-5-(3-(trifluoromethyl)-5,6-dihydro-[1,2,4]triazolo[4,3-a]pyrazin-7(8H)-yl)-1H-indazol-1-yl)acetyl)-N-(2′-chloro-2-fluoro-[1,1′-biphenyl]-3-yl)-4-fluoropyrrolidine-2-carboxamide] | < 1 | 
CC(=O)c1nn(CC(=O)N2C[C@H](F)C[C@H]2C(=O)Nc2cccc(-c3ccccc3Cl)c2F)c2ccc(N3CCn4c(nnc4C(F)(F)F)C3)cc12 [Compound 531, (2S,4R)-1-(2-(3-acetyl-5-(3-(trifluoromethyl)-5,6-dihydro-[1,2,4]triazolo[4,3-a]pyrazin-7(8H)-yl)-1H-indazol-1-yl)acetyl)-N-(2′-chloro-2-fluorobiphenyl-3-yl)-4-fluoropyrrolidine-2-carboxamide] |  | < 1
CC(=O)c1nn(CC(=O)N2C[C@H](F)C[C@H]2C(=S)NCc2cccc(Cl)c2F)c2ccc(-c3cnc(C)nc3)cc12 [Compound 517, (2S,4R)-1-(2-(3-Acetyl-5-(2-methylpyrimidin-5-yl)-1H-indazol-1-yl)acetyl)-N-(3-chloro-2-fluorobenzyl)-4-fluoropyrrolidine-2-carbothioamide] |  | < 1
Cc1cccc(C[C@@H](O)[C@H]2C[C@@H](F)CN2C(=O)Cn2cc(C(N)=O)c3cc(-c4cnc(C)nc4)ccc32)n1 [Compound 561, 1-(2-((2R,4R)-4-Fluoro-2-((R)-1-hydroxy-2-(6-methylpyridin-2-yl)ethyl)pyrrolidin-1-yl)-2-oxoethyl)-5-(2-methylpyrimidin-5-yl)-1H-indole-3-carboxamide] | > 10 | 
CC(=O)c1nn(CC(=O)N2C[C@H](F)C[C@H]2c2nnc(-c3cccc(Cl)c3F)o2)c2ccc(-c3cnc(C)nc3)cc12 [Compound 574, 2-(3-Acetyl-5-(2-methylpyrimidin-5-yl)-1H-indazol-1-yl)-1-((2S,4R)-2-(5-(3-chloro-2-fluorophenyl)-1,3,4-oxadiazol-2-yl)-4-fluoropyrrolidin-1-yl)ethan-1-one] | 1 to 10 | 
CC(=O)c1nn(CC(=O)N2C[C@H](F)C[C@@H]2c2nc3nc(Br)ccc3[nH]2)c2ccc(-c3cnc(C)nc3)cc12 [Compound 565, 2-(3-Acetyl-5-(2-methylpyrimidin-5-yl)-1H-indazol-1-yl)-1-((2R,4R)-2-(5-bromo-1H-imidazo[4,5-b]pyridin-2-yl)-4-fluoropyrrolidin-1-yl)ethan-1-one] | > 10 | 
C=CCCCCCCCCCNc1ncc(-c2ccc3c(c2)c(C(C)=O)nn3CC(=O)O)cn1 [Compound 535, 2-(3-acetyl-5-(2-(undec-10-en-1-ylamino)pyrimidin-5-yl)-1H-indazol-1-yl)acetic acid] | > 10 | 
CC[C@@H](NC(=O)Cn1nc(C(C)=O)c2cc(-c3cnc(C)nc3)ccc21)C(=O)Nc1cccc(Br)n1 [Compound 599] | > 10 | 
Cc1ccc(-c2ccc3c(c2)c(C(N)=O)cn3CC(=O)N2CCC(F)CC[C@H]2C(=O)Nc2cccc(C)n2)cn1 (stereo partly drawn) [Compound 586, 1-(2-((2S)-5-Fluoro-2-((6-methylpyridin-2-yl)carbamoyl)azepan-1-yl)-2-oxoethyl)-5-(6-methylpyridin-3-yl)-1H-indole-3-carboxamide] | > 10 | 
C/C(=N\O)c1nn(CC(=O)N2C[C@H](F)C[C@H]2C(=O)Nc2cccc(Br)n2)c2ccc(-c3cnc(C)nc3)cc12 [Compound 555, (2S,4R)—N-(6-Bromopyridin-2-yl)-4-fluoro-1-(2-(3-((E)-1-(hydroxyimino)ethyl)-5-(2-methylpyrimidin-5-yl)-1H-indazol-1-yl)acetyl)pyrrolidine-2-carboxamide] | < 1 | 
Cc1cccc(NC(=O)[C@@H]2CCC(F)CCN2C(=O)Cn2cc(C(N)=O)c3cc(-c4ccc(F)nc4)ccc32)n1 (stereo partly drawn) [Compound 590, 1-(2-((2S)-5-Fluoro-2-((6-methylpyridin-2-yl)carbamoyl)azepan-1-yl)-2-oxoethyl)-5-(6-fluoropyridin-3-yl)-1H-indole-3-carboxamide] | > 10 | 
CC(=O)c1nn(CC(=O)N2C[C@H](F)C[C@H]2C(=O)Nc2cccc(-c3ccc4c(c3Cl)NCCN4)c2F)c2ccc(-c3cnc(C)nc3)cc12 [Compound 560, (2S,4R)-1-(2-(3-Acetyl-5-(2-methylpyrimidin-5-yl)-1H-indazol-1-yl)acetyl)-N-(3-(5-chloro-1,2,3,4-tetrahydroquinoxalin-6-yl)-2-fluorophenyl)-4-fluoropyrrolidine-2-carboxamide] | < 1 | 
CC(=O)c1cc(CC(=O)N2C[C@H](F)C[C@H]2C(=O)Nc2cccc(Br)n2)n2ccc(-c3cnc(C)nc3)cc12 [Compound 643] | < 1 | 
CC(=O)c1cn(CC(=O)N2C[C@H](F)C[C@H]2C(=O)Nc2cccc(Br)n2)c2ccc(-c3cnc(O[C@@H]4CO[C@H]5[C@@H]4OC[C@H]5O)nc3)cc12 [Compound 502, (2S,4R)-1-(2-(3-Acetyl-5-(2-((3R,3aR,6R,6aR)-6-hydroxyhexahydrofuro[3,2-b]furan-3-yloxy)pyrimidin-5-yl)-1H-indol-1-yl)acetyl)-N-(6-bromopyridin-2-yl)-4-fluoropyrrolidine-2-carboxamide] |  | < 1
CC(=O)c1nn(CC(=O)N2CCC[C@@H](CNC(=O)c3cccc(Br)n3)C2)c2ccc(-c3cnc(C)nc3)cc12 [Compound 543, (S)—N-((1-(2-(3-Acetyl-5-(2-methylpyrimidin-5-yl)-1H-indazol-1-yl)acetyl)piperidin-3-yl)methyl)-6-bromopicolinamide] | > 10 | 
CC(=O)c1nn(CC(=O)N2C[C@H](F)C[C@@H]2c2nnc(-c3cccc(Cl)c3F)[nH]2)c2ccc(-c3cnc(C)nc3)cc12 [Compound 572, 2-(3-acetyl-5-(2-methylpyrimidin-5-yl)-1H-indazol-1-yl)-1-((2R,4R)-2-(5-(3-chloro-2-fluorophenyl)-4H-1,2,4-triazol-3-yl)-4-fluoropyrrolidin-1-yl)ethan-1-one] | > 10 | 
CC(=O)c1nn(CC(=O)N2C[C@H](F)C[C@H]2C(=O)OCc2cccc(Cl)c2F)c2ccc(-c3cnc(C)nc3)cc12 [Compound 515, 3-Chloro-2-fluorobenzyl (2S,4R)-1-(2-(3-acetyl-5-(2-methylpyrimidin-5-yl)-1H-indazol-1-yl)acetyl)-4-fluoropyrrolidine-2-carboxylate] |  | 1 to 10
CC(=O)c1nn2c3ccc(cc13)-c1cnc(nc1)NCCCCCCCCCCCc1cc(Cl)c(F)c(c1)CNC(=O)[C@@H]1C[C@@H](F)CN1C(=O)C2 [Compound 541] | > 10 | 
